Where two headings read alike, the source gives them in different places.
Legend:
[1] = tested on: AsPC-1; assay: Cell viability analysis, pancreatic cancer AsPC-1; assay type: cell-based, human; settings: Homo sapiens, ASPC1, 72 h; AsPC-1; repeated experiment; read-out: The results of antibiotic drug inhibiting cancer cell lines (cell viability analysis), AsPC-1
[2] = tested on: T24; assay: Cell viability analysis, bladder cancer T24; assay type: cell-based, human; settings: Homo sapiens, T-24, 72 h; T24; repeated experiment; read-out: The results of antibiotic drug inhibiting cancer cell lines (cell viability analysis), T24
[3] = tested on: NIH: OVCAR-3; assay: Cell viability analysis, ovarian cancer NIH: OVCAR-3; assay type: cell-based, human; settings: Homo sapiens, 72 h; NIH-OVCAR-3; repeated experiment; read-out: The results of antibiotic drug inhibiting cancer cell lines (cell viability analysis), NIH-OVCAR-3
[4] = tested on: MCF7 (Mammary Gland, Adenocarcinoma); assay: Cell viability analysis, breast cancer MCF7; assay type: cell-based, human; settings: Homo sapiens, MCF7, 72 h
[5] = tested on: BxPC-3; assay: Cell viability analysis, pancreatic cancer BxPC-3; assay type: cell-based, human; settings: Homo sapiens, 72 h; BxPC-3; repeated experiment; read-out: The results of antibiotic drug inhibiting cancer cell lines (cell viability analysis), BxPC-3
[6] = tested on: HepG2 (Hepatocellular Carcinoma); assay: Cell viability analysis, hepatic cancer HepG2; assay type: cell-based, human; settings: Homo sapiens, HepG2, 72 h
[7] = tested on: MDA-MB-231 (Mammary Gland, Adenocarcinoma); assay: Cell viability analysis, breast cancer MDA-MB-231; assay type: cell-based, human; settings: Homo sapiens, MDA-MB-231, 72 h; MDA-MB231; repeated experiment; read-out: The results of antibiotic drug inhibiting cancer cell lines (cell viability analysis), MDA-MB231
[8] = tested on: cancer cell lines; assay: Cell viability analysis (WST-1) on cancer cell lines; assay type: cell-based, human; settings: drug 10 μM, 72 hours, WST-1; Table 3
[9] = tested on: U-2OS; assay: Cell viability analysis, osteosarcoma U-2OS; assay type: cell-based, human; settings: Homo sapiens, 72 h; U2OS; repeated experiment; read-out: The results of antibiotic drug inhibiting cancer cell lines (cell viability analysis), U2OS
[10] = tested on: BCC (basal cell carcinoma); assay: Cell viability analysis, skin cancer BCC; assay type: cell-based, human; settings: Homo sapiens, 72 h; BCC; repeated experiment; read-out: The results of antibiotic drug inhibiting cancer cell lines (cell viability analysis), BCC
[11] = tested on: HL-60 (Acute Promyelocytic Leukemia); assay: Cell viability analysis, leukemia HL-60; assay type: cell-based, human; settings: Homo sapiens, HL-60, 72 h, drug 10 μM, 72 hours, WST-1, OD450 nm; read-out: cell viability (survival rate), HL-60
[12] = tested on: HI650 (Lung Adenocarcinoma); assay: Cell viability analysis, lung cancer HI650; assay type: cell-based, human; settings: Homo sapiens, NCI-H1650, 72 h
[13] = tested on: A549 (Lung Adenocarcinoma); assay: Cell viability analysis, lung cancer A549; assay type: cell-based, human; settings: Homo sapiens, A549, 72 h
[14] = tested on: SAS (Tongue squamous cell carcinoma); assay: Cell viability analysis, tongue cancer SAS; assay type: cell-based, human; settings: Homo sapiens, 72 h; SAS; repeated experiment; read-out: The results of antibiotic drug inhibiting cancer cell lines (cell viability analysis), SAS
[15] = tested on: LoVo (Colorectal Adenocarcinoma); assay: Cell viability analysis, colon cancer LoVo; assay type: cell-based, human; settings: Homo sapiens, LoVo, 72 h
[16] = tested on: A375 (Amelanotic Melanoma); assay: Cell viability analysis, skin cancer A375; assay type: cell-based, human; settings: Homo sapiens, A-375, 72 h
[17] = tested on: AGS (Gastric Adenocarcinoma); assay: Cell viability analysis, gastric cancer AGS; assay type: cell-based, human; settings: Homo sapiens, 72 h
[18] = tested on: Hep3B (hepatocellular carcinoma); assay: Cell viability analysis, hepatic cancer Hep3B; assay type: cell-based, human; settings: Homo sapiens, 72 h; Hep3B; repeated experiment; read-out: The results of antibiotic drug inhibiting cancer cell lines (cell viability analysis), Hep3B
[19] = tested on: HeLa (Cervix Adenocarcinoma); assay: Cell viability analysis, cervical cancer HeLa; assay type: cell-based, human; settings: Homo sapiens, HeLa, 72 h, HeLa
[20] = tested on: HCT116 (p53+) (Colorectal Carcinoma)
[21] = tested on: MKN-45 (Gastric Adenocarcinoma); assay: Cell viability analysis, gastric cancer MKN-45; assay type: cell-based, human; settings: Homo sapiens, MKN-45, 72 h
[22] = tested on: TOV-21G; assay: Cell viability analysis, ovarian cancer TOV-21G; assay type: cell-based, human; settings: Homo sapiens, TOV21G, 72 h; TOV-21G; repeated experiment; read-out: The results of antibiotic drug inhibiting cancer cell lines (cell viability analysis), TOV-21G
[23] = tested on: C-33A (Cervical carcinoma); assay: Cell viability analysis, cervical cancer C-33A; assay type: cell-based, human; settings: Homo sapiens, 72 h; C-33A; repeated experiment; read-out: The results of antibiotic drug inhibiting cancer cell lines (cell viability analysis), C-33A
[24] = tested on: PC3 (p53−) (Prostate Adenocarcinoma); assay: Cell viability analysis, prostate cancer PC3; assay type: cell-based, human; settings: Homo sapiens, 72 h
[25] = tested on: 786-O (Renal adenocarcinoma); assay: Cell viability analysis, renal cancer 786-O; assay type: cell-based, human; settings: Homo sapiens, 786-0, 72 h; 786-O; repeated experiment; read-out: The results of antibiotic drug inhibiting cancer cell lines (cell viability analysis), 786-O

**Q.** `CC(C)(C)CC(C)(C)c1ccc(O)c(Cc2ccc(Cl)cc2Cl)c1` [Clofoctol] was tested. Which viability at 10 µM [1] did it give?
**A.** 78.7%

**Q.** What about the viability at 10 µM [2] of the same compound?
**A.** 90.8%

**Q.** What about the viability at 10 µM [3] of the same compound?
**A.** 97.8%

**Q.** What about the viability at 10 µM ([4]; MCF-7, repeated experiment, read-out: The results of antibiotic drug inhibiting cancer cell lines (cell viability analysis), MCF-7) of the same compound?
**A.** 83%

**Q.** What about the viability at 10 µM ([4]; drug 10 μM, 72 hours, WST-1, OD450 nm, read-out: cell viability (survival rate), MCF7) of the same compound?
**A.** 48.1%

**Q.** What about the viability at 10 µM [5] of the same compound?
**A.** 65.8%

**Q.** And the viability at 10 µM ([6]; HepG2, repeated experiment, read-out: The results of antibiotic drug inhibiting cancer cell lines (cell viability analysis), HepG2)?
**A.** 114%

**Q.** What about the viability at 10 µM ([6]; drug 10 μM, 72 hours, WST-1, OD450 nm, read-out: cell viability (survival rate), HepG2) of the same compound?
**A.** 77.9%

**Q.** And the viability at 10 µM [7]?
**A.** 102%

**Q.** And the “inhibition effect on different cancer cell lines” value [8]?
**A.** significant inhibition effect

**Q.** What about the viability at 10 µM [9] of the same compound?
**A.** 74.9%

**Q.** And the viability at 10 µM [10]?
**A.** 94.6%

**Q.** And the viability at 10 µM [11]?
**A.** 83%

**Q.** And the viability at 10 µM ([12]; H1650, repeated experiment, read-out: The results of antibiotic drug inhibiting cancer cell lines (cell viability analysis), H1650)?
**A.** 69.6%

**Q.** And the viability at 10 µM ([12]; drug 10 μM, 72 hours, WST-1, OD450 nm, read-out: cell viability (survival rate), H1650)?
**A.** 77%

**Q.** And the viability at 10 µM ([13]; A549, repeated experiment, read-out: The results of antibiotic drug inhibiting cancer cell lines (cell viability analysis), A549)?
**A.** 90.6%

**Q.** What about the viability at 10 µM ([13]; drug 10 μM, 72 hours, WST-1, OD450 nm, read-out: cell viability (survival rate), A549) of the same compound?
**A.** 55.6%

**Q.** What about the viability at 10 µM [14] of the same compound?
**A.** 73.2%

**Q.** And the viability at 10 µM ([15]; read-out: The results of antibiotic drug inhibiting cancer cell lines (cell viability analysis), LoVo, repeated experiment)?
**A.** 67.1%

**Q.** What about the viability at 10 µM ([15]; read-out: cell viability (survival rate), LoVo, drug 10 μM, 72 hours, WST-1, OD450 nm) of the same compound?
**A.** 74.7%

**Q.** What about the viability at 10 µM ([16]; A375, repeated experiment, read-out: The results of antibiotic drug inhibiting cancer cell lines (cell viability analysis), A375) of the same compound?
**A.** 109%

**Q.** What about the viability at 10 µM ([16]; drug 10 μM, 72 hours, WST-1, OD450 nm, read-out: cell viability (survival rate), A375) of the same compound?
**A.** 34.5%

**Q.** What about the viability at 10 µM ([17]; AGS, repeated experiment, read-out: The results of antibiotic drug inhibiting cancer cell lines (cell viability analysis), AGS) of the same compound?
**A.** 83.9%

**Q.** And the viability at 10 µM ([17]; drug 10 μM, 72 hours, WST-1, OD450 nm, read-out: cell viability (survival rate), AGS)?
**A.** 86.7%

**Q.** What about the viability at 10 µM [18] of the same compound?
**A.** 135%

**Q.** And the viability at 10 µM ([19]; repeated experiment, read-out: The results of antibiotic drug inhibiting cancer cell lines (cell viability analysis), HeLa)?
**A.** 98%

**Q.** What about the viability at 10 µM ([19]; drug 10 μM, 72 hours, WST-1, OD450 nm, read-out: cell viability (survival rate), HeLa) of the same compound?
**A.** 58%

**Q.** What about the viability [20] of the same compound?
**A.** 76.6%

**Q.** What about the viability at 10 µM ([21]; MKN-45, repeated experiment, read-out: The results of antibiotic drug inhibiting cancer cell lines (cell viability analysis), MKN-45) of the same compound?
**A.** 117%

**Q.** And the viability at 10 µM ([21]; drug 10 μM, 72 hours, WST-1, OD450 nm, read-out: cell viability (survival rate), MKN-45)?
**A.** 73.6%

**Q.** What about the viability at 10 µM [22] of the same compound?
**A.** 73.1%

**Q.** And the viability at 10 µM [23]?
**A.** 117%

**Q.** And the viability at 10 µM ([24]; PC-3, repeated experiment, read-out: The results of antibiotic drug inhibiting cancer cell lines (cell viability analysis), PC-3)?
**A.** 110%

**Q.** And the viability at 10 µM ([24]; drug 10 μM, 72 hours, WST-1, OD450 nm, read-out: cell viability (survival rate), PC3)?
**A.** 63.4%

**Q.** And the viability at 10 µM [25]?
**A.** 105%

Source: patent US10105357B2, “Indication of antibiotic drugs for preparation of cancer inhibition pharmaceutical composition” (LAUNX BIOMEDICAL CO., LTD., priority 2014, dated 2018)
